Experiment [1] concerns platelet poor plasma. Nature of the experiment: Platelet aggregation by washer (disk) minimum position in platelet poor plasma. It counts as cell-based. To be noted: platelet poor plasma containing 1.5 U/mL heparin; 20 micromolar ADP; FIG. 9. From the text:
Platelet poor plasma […] containing 1.5 U/mL heparin was filled into a six-channel cartridge similar to cartridge 200 depicted in and described regarding FIG. 7 for use with a blood analyzer similar to analyzer 300 depicted and described regarding FIG. 6. The analyzer and cartridge were similar to those described in U.S. Pat. Nos. 5,629,209 and 6,613,286. A chamber of the cartridge contained ADP such that the concentration in the chamber was 20 micromolar after introduction of the sample. No other clot enhancing agent was in the sample or chamber of the cartridge. The chambers included a ferromagnetic washer. Following introduction of the sample after the cartridge was inserted into the blood analyzer, the test was started, and platelet aggregation was analyzed. The blood analyzer was programmed to hold the washer (disk) at the top of the chamber for 90 to 95% of the test cycle (a test cycle is the time sum of lift time and drop time), which was about 4.5 seconds for a test cycle of 5 seconds, to ensure platelets in the test sample aggregated and accumulated at the bottom of the chamber. The washer was allowed to drop (electromagnet deactivated), and the washer minimum position was determined.

Experiment [2] deals with platelets in platelet rich plasma (PRP). Put plainly: Platelet aggregation by washer (disk) minimum position in platelet rich plasma. Type of experiment: cell-based. To be noted: platelet rich plasma containing 1.5 U/mL heparin; 20 micromolar ADP; relative to absence of ADP; FIG. 8. From the text:
Platelet rich plasma (PRP) containing 1.5 U/mL heparin was filled into a six-channel cartridge similar to cartridge 200 depicted in and described regarding FIG. 7 for use with an analyzer similar to analyzer 300 depicted in and described regarding FIG. 6. The analyzer and cartridge were similar to those described in U.S. Pat. Nos. 5,629,209 and 6,613,286.
One chamber of the cartridge contained ADP such that the concentration in the chamber was 20 micromolar after introduction of the sample. Another chamber included no ADP. No other clot enhancing agent was in the sample or chamber of the cartridge. The chambers included a ferromagnetic washer. The cartridge was inserted in the analyzer before PRP sample fill. Immediately after the sample introduction, the test began, and platelet aggregation was analyzed.
The analyzer was programmed to hold the washer (disk) at the top of the chamber for 90 to 95% of the test cycle (a test cycle is the time sum of lift time and drop time), which was about 4.5 seconds for a test cycle of 5 seconds, to ensure platelets in the test sample aggregated and accumulated at the bottom of the chamber. The washer was allowed to drop (electromagnet deactivated), and the washer minimum position was determined by the proximity sensor (e.g., sensor 30 depicted in and described regarding FIGS. 2-5) in the presence and absence of ADP.

SMILES strings stand for the structures.

The source of these data is patent US20240418717A1, “APPARATUS AND METHOD FOR ANALYZING PLATELET AGGREGATION” (MEDTRONIC VASCULAR, INC., priority 2020, published 2024).

Turning to `Nc1ncnc2c1ncn2[C@@H]1O[C@H](COP(=O)(O)OP(=O)(O)O)[C@@H](O)[C@H]1O` [ADP, adenosine diphosphate], the “disk minimal position (platelet aggregation)” value in experiment [1] is on record as “did not increase”. For the same compound, the “washer (disk) minimum position (platelet aggregation)” value in experiment [2] is “increased”.
